# Read-outs that look alike come from different tables or passages of the source.
# How the values were obtained:
# LYP [1] = biological target: T1, LYP (Homo sapiens, UniProt Q9Y2R2); test: LYP inhibition assay with fluorogenic substrates; format: biochemical; conditions: for LYP versus PTP-PEST inhibition in comparative library screen: nominal 5 µM, DiFMUP and peptide 1; for IC50: pH 6.5; for selectivity for LYP over PTP-PEST in dose-response screens: in vitro, Table 1
# T1 sequence (Q9Y2R2 2-309): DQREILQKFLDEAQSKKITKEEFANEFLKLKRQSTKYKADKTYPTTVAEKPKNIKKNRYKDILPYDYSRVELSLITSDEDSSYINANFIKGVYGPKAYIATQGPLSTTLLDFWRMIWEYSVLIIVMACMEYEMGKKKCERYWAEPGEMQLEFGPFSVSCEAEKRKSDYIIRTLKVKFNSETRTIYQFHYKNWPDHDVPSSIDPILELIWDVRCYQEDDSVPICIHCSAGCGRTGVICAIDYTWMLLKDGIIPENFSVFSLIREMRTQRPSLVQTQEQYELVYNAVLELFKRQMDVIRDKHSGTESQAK
# PTP-PEST = biological target: T2, PTP-PEST (Homo sapiens, UniProt Q05209); test: PTP-PEST inhibition assay with fluorogenic substrates; format: biochemical; conditions: pH 6.5
# T2 sequence (Q05209 2-323): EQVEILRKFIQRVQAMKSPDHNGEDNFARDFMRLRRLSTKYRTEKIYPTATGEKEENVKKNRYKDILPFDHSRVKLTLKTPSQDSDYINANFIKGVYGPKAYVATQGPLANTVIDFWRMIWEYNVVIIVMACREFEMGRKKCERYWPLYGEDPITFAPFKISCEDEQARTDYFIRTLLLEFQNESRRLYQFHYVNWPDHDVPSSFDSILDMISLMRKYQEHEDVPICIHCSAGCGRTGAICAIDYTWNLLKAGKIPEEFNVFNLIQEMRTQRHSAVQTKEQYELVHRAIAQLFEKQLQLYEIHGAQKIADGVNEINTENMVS
# HePTP = biological target: T3, HePTP (Homo sapiens, UniProt P35236); test: HePTP counterscreen; format: biochemical; conditions: read-out: IC50 HePTP (DiFMUP); substrate DiFMUP
# T3 sequence (P35236 65-360): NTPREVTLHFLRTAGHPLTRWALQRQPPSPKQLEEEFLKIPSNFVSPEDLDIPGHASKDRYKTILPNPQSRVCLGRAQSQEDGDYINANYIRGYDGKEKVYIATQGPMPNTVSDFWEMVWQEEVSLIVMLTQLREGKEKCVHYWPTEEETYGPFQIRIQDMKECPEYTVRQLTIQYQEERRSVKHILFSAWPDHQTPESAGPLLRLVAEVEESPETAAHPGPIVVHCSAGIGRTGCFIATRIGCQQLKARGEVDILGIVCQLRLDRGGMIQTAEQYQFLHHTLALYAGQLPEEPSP
# CD45 [2] = biological target: T4, CD45 (Homo sapiens, UniProt P08575); test: CD45 counterscreen; format: biochemical; conditions: read-out: IC50 CD45 (DiFMUP); substrate DiFMUP
# T4 sequence (P08575 653-912 limits assumed): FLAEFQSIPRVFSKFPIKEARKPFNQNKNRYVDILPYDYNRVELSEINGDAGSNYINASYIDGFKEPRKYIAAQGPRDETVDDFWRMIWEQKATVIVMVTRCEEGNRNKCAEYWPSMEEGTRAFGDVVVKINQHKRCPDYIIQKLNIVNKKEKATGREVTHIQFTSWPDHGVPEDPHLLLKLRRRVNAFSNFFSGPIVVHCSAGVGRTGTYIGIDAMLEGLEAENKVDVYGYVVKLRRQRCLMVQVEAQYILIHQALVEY
# LYP [3] = test: Intracellular LYP inhibition in JTAg cells, anti-pLck; format: cell-based, human; conditions: JTAg cells, TCR stimulated (C305, 2 min); 50 µM of 17 and 34, 25 µM of 39, 1 h
# CD45 [4] = biological target: T5, CD45 (Homo sapiens, UniProt P08575); test: Intracellular CD45 inhibition in JTAg cells, anti-pLck; format: cell-based; conditions: JTAg cells; 50 µM of 17 and 34, 25 µM of 39, 1 h
# T5 sequence (P08575 26-1306): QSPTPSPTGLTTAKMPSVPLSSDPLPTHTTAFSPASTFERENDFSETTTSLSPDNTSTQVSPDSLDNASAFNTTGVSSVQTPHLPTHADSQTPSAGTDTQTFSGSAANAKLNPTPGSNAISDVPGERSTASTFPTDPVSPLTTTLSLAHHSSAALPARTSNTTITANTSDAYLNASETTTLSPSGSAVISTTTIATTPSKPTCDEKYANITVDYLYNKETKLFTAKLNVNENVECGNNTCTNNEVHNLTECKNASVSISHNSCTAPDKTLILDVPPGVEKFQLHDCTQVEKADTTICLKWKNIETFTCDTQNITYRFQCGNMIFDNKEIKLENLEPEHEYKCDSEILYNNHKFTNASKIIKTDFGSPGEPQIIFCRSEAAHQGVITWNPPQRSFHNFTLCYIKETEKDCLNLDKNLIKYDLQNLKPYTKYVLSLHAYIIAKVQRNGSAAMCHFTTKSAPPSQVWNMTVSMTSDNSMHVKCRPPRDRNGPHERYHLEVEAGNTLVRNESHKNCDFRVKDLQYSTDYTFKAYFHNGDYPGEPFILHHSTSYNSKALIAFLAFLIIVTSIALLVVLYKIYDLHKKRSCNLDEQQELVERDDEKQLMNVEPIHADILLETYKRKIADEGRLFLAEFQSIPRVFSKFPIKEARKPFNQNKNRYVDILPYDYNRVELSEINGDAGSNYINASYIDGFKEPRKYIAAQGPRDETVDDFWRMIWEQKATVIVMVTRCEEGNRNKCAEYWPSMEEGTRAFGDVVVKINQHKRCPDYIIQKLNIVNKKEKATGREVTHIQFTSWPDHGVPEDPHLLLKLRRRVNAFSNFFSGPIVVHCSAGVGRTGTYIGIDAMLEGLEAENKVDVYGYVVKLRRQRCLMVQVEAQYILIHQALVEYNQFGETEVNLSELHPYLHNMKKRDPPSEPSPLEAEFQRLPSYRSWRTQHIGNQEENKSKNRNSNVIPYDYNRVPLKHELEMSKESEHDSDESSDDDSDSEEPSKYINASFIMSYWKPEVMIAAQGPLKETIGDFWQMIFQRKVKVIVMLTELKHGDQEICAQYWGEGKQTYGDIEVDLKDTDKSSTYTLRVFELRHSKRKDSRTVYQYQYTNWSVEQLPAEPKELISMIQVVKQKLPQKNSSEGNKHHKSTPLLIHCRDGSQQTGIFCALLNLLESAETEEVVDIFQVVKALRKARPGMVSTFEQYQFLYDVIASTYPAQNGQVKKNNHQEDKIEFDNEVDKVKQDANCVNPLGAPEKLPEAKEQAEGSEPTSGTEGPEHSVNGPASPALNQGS
# PTP1B = biological target: T6, PTP1B (Homo sapiens, UniProt P18031); test: PTP1B inhibition assay with fluorogenic substrates; format: biochemical; conditions: for IC50: pH 7.1
# T6 sequence (P18031 3-277 limits assumed): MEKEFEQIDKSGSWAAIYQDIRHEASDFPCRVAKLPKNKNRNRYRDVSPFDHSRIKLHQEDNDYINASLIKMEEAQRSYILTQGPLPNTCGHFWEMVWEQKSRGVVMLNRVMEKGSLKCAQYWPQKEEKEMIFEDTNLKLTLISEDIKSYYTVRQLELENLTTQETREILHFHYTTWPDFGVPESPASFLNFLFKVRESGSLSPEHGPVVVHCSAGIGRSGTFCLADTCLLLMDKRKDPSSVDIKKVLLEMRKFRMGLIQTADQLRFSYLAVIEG
# TCPTP = biological target: T7, TCPTP (Homo sapiens, UniProt P17706); test: TCPTP inhibition assay with fluorogenic substrates; format: biochemical; conditions: pH 7.1
# T7 sequence (P17706 5-275 limits assumed): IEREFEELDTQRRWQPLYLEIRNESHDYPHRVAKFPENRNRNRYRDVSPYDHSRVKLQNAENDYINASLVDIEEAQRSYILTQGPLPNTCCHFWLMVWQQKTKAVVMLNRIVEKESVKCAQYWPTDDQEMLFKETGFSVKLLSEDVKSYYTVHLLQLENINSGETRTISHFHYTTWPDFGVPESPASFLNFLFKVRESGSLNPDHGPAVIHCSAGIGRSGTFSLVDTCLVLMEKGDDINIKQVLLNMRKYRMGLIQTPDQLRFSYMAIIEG
# [5] = read-out: IC50 LYP (DiFMUP), substrate DiFMUP 1.5 µM
# [6] = read-out: IC50 LYP (peptide 1), substrate peptide 1 10 µM
# [7] = read-out: IC50 PEST (DiFMUP), substrate DiFMUP 1.5 µM
# [8] = read-out: IC50 PEST (peptide 1), substrate peptide 1 10 µM
Structure (SMILES),LYP versus PTP-PEST inhibition in comparative library screen (LYP [1]),IC50 (LYP [1]; [5]),IC50 (LYP [1]; [6]),IC50 (PTP-PEST; [7]),IC50 (PTP-PEST; [8]),IC50 (HePTP),IC50 (CD45 [2]),selectivity for LYP over PTP-PEST in dose-response screens (LYP [1]),selectivity for LYP over PTP-PEST (LYP [1]; with peptide 1 as substrate),phosphorylation of Lck at Y394 (LYP activity in cells) (LYP [3]),phosphorylation of Lck at Y505 (CD45 activity in cells) (CD45 [4]),selectivity between PTP1B and TCPTP in dose-response screens (PTP1B; Table 2),"PTP1B inhibition in library screen, peptide 2 versus DiFMUP (PTP1B; nominal 5 µM)","IC50 (PTP1B; read-out: IC50 PTP1B (DiFMUP), substrate DiFMUP 1.5 µM)","IC50 (PTP1B; read-out: IC50 PTP1B (peptide 2), substrate peptide 2 60 µM)",selectivity for PTP1B (over TCPTP) (PTP1B; with peptide 2 as substrate),"IC50 (TCPTP; read-out: IC50 TCPTP (DiFMUP), substrate DiFMUP 1.5 µM)","IC50 (TCPTP; read-out: IC50 TCPTP (peptide 2), substrate peptide 2 60 µM)"
"[Cl][Au][PH](C1CCCCC1)(C1CCCCC1)C1CCCCC1 [Compound 25, Tricyclohexylphosphine-Au(I)-Cl]","appear LYP-selective when DiFMUP is used in the assay, but not when the peptide is used",25 ± 1 µM,61 ± 1 µM,45 ± 1 µM,> 80 µM,20 ± 2 µM,> 70 µM,–,–,–,–,–,–,–,–,–,–,–
"N#CCC[P+](CCC#N)([Au-][Cl])c1ccccc1 [Compound 28, Bis(2-cyanoethyl)phenylphosphine-Au(I)-Cl]",–,3.5 ± 0.1 µM,2.5 ± 0.6 µM,> 80 µM,33 ± 1 µM,> 50 µM,> 70 µM,selective for LYP over the ~ 70% identical PTP-PEST,–,–,–,–,–,–,–,–,–,–
CCP(CC)CC.[Au+].[Cl-] [Compound 39],"appears LYP selective with peptide 1, but not with DiFMUP",33 ± 3 µM,26 ± 2 µM,> 150 µM,93 ± 9 µM,120 ± 5 µM,33 ± 3 µM,selective for LYP over the ~ 70% identical PTP-PEST,~4 fold,increase in phosphorylation at Y394,increase in this band,–,–,–,–,–,–,–
Fc1c(F)c(F)c([PH]([Au][Cl])(c2c(F)c(F)c(F)c(F)c2F)c2c(F)c(F)c(F)c(F)c2F)c(F)c1F [Compound 40],–,–,–,–,–,–,–,–,–,–,–,no significant selectivity with DiFMUP,the reverse seems to be true,7.5 ± 0.2 µM,5.4 ± 0.3 µM,~10 fold,6.7 ± 0.2 µM,57 ± 1 µM

# From publication PMC2801581 (Journal of medicinal chemistry, 2009)
